{"source": "paper PMC5220300", "about": "“Variant Ionotropic Receptors in the Malaria Vector Mosquito Anopheles gambiae Tuned to Amines and Carboxylic Acids” (Scientific Reports, 2017)", "format_in_all_cases": "cell-based", "key": {"[1]": {"target": "T1, AgIR41a (Anopheles coluzzii, UniProt A0A6E8V5R5)", "T1 construct": "with AgIr25a and AgIr76b (co-receptors)", "T1 sequence (A0A6E8V5R5 1-637)": "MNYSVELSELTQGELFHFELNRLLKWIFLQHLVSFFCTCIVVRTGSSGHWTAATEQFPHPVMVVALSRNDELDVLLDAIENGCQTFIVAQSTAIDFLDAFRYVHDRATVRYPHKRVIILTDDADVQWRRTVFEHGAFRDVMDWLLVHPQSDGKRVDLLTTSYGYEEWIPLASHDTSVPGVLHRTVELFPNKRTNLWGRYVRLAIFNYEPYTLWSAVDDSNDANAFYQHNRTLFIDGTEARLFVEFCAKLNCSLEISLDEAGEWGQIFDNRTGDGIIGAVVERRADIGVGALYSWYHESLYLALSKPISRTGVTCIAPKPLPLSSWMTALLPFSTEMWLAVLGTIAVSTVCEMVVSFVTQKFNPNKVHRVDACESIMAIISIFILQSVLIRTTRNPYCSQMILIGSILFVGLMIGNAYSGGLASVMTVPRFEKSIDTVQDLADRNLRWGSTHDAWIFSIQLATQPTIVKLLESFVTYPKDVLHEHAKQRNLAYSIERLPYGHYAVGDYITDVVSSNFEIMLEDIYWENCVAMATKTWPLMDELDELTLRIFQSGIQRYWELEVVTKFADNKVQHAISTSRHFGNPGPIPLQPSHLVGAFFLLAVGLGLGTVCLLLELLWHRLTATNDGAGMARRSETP", "T1 sequence (A0A1S4H3H9 28-946 partner)": "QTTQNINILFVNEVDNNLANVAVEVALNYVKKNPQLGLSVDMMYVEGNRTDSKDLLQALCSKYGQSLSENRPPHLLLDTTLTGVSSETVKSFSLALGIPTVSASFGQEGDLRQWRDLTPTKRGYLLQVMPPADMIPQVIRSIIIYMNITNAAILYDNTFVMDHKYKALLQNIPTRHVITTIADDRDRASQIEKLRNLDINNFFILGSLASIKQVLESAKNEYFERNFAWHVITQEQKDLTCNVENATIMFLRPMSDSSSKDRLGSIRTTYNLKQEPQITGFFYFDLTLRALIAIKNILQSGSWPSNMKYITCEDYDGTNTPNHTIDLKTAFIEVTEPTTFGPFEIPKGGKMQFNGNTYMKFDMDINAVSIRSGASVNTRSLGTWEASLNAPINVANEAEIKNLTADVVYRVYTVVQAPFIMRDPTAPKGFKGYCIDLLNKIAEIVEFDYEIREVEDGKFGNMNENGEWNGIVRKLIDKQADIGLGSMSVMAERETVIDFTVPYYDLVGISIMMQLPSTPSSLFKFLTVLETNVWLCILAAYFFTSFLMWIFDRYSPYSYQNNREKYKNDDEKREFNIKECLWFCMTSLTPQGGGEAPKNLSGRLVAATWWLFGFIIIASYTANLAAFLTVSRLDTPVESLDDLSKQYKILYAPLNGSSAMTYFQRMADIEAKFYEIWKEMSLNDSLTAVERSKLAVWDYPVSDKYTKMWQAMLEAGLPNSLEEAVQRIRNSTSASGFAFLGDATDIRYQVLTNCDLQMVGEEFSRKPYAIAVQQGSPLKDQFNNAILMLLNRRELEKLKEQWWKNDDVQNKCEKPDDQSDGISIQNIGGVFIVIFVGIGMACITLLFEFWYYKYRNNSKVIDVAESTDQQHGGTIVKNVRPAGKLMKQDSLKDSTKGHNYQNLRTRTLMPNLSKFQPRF", "T1 sequence (A0A6E8W6Y5 1-657 partner)": "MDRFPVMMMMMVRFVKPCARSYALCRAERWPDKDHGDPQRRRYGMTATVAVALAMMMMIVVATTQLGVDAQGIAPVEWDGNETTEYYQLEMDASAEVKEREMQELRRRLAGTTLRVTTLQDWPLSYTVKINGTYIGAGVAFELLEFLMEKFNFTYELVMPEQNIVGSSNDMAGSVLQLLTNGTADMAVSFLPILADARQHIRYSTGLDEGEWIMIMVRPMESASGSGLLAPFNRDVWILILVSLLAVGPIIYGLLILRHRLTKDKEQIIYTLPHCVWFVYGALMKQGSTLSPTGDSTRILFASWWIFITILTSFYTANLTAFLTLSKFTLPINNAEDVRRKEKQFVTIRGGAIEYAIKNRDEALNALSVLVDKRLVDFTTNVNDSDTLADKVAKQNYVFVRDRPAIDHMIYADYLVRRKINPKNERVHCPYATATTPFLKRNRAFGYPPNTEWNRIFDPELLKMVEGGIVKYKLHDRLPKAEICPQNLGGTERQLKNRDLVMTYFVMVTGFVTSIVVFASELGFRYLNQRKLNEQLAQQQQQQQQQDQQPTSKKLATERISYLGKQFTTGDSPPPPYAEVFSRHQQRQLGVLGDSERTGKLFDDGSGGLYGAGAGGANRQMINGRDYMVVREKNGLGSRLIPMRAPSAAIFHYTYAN", "test": "two-electrode voltage clamp, Xenopus oocytes, concentration-response"}, "[2]": {"target": "T2, AgIR41c (Anopheles coluzzii, UniProt A0A6E8W7H2)", "T2 construct": "with AgIr25a and AgIr76b (co-receptors)", "T2 sequence (A0A6E8W7H2 1-669, one chain of several)": "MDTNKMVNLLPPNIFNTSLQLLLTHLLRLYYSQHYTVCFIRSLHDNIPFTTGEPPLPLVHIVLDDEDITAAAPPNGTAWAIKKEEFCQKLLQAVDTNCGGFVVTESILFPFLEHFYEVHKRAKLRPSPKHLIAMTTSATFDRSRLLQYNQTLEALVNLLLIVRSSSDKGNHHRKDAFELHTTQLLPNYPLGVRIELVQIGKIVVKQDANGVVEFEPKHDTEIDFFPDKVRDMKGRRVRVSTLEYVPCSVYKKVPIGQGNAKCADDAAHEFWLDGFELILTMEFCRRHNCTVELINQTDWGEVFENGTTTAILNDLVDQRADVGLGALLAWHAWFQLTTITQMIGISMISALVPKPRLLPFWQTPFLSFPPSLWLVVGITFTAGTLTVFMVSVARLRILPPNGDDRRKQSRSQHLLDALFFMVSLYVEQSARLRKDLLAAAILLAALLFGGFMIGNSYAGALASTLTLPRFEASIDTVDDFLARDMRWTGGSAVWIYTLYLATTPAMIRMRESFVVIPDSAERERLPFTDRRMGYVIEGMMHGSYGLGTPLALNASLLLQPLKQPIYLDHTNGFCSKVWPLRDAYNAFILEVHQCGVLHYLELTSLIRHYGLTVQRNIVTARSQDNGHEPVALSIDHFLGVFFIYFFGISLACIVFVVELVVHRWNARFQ", "test": "two-electrode voltage clamp, Xenopus oocytes, concentration-response"}, "[3]": {"target": "T3, AgIR75k (Anopheles coluzzii, UniProt A0A6E8VT06)", "T3 construct": "with AgIr8a (co-receptor)", "T3 sequence (A0A6E8VT06 26-675)": "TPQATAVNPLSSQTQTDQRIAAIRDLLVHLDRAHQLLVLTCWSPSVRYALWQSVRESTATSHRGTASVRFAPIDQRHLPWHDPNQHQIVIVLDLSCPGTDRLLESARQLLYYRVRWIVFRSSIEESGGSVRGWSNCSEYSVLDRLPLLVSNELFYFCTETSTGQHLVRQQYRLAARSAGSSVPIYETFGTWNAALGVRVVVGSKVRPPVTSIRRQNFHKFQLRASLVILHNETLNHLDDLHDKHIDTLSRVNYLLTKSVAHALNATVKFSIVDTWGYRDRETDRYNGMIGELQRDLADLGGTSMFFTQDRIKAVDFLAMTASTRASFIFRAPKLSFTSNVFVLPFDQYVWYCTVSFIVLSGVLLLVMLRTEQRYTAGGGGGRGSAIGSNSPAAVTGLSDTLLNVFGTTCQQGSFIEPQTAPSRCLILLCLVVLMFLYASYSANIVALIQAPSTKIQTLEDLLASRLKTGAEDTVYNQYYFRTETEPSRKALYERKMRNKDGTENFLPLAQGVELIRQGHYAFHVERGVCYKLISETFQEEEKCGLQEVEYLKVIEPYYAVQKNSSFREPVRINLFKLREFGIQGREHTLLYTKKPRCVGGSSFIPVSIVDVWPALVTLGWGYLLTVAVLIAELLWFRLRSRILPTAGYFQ", "T3 sequence (A0A6E8W0A6 1-828 partner)": "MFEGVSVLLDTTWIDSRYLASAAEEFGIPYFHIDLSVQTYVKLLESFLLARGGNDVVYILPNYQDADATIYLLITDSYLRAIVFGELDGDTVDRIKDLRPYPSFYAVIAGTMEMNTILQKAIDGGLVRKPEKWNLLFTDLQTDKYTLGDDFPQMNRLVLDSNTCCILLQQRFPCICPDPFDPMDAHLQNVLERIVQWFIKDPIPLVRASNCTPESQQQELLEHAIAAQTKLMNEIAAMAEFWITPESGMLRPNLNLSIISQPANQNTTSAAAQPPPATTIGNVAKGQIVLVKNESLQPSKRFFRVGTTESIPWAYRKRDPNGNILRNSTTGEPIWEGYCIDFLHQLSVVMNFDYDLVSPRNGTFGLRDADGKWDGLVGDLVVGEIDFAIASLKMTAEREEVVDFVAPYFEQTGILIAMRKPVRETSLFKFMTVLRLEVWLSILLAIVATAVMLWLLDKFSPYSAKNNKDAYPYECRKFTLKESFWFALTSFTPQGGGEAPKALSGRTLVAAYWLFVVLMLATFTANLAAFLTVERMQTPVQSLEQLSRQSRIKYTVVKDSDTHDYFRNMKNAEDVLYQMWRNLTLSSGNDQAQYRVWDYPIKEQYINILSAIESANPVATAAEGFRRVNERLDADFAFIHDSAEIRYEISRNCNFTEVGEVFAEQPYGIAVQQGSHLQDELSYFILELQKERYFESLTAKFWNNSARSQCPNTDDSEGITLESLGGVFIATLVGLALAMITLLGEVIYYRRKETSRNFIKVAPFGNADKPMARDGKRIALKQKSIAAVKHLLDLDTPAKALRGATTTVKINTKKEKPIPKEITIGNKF", "test": "two-electrode voltage clamp, Xenopus oocytes, concentration-response"}, "[4]": {"target": "T3, AgIR75k", "test": "two-electrode voltage clamp, Xenopus oocytes, […] single concentration"}}, "data": [{"smiles": "C1CCNC1", "note": "[pyrrolidine]", "values": [{"measurement": "EC50", "setting": "[1]", "result": 110, "unit": "µM"}, {"measurement": "EC50", "setting": "[2]", "result": 3.4, "unit": "µM"}]}, {"smiles": "CCCCCCCCC(=O)O", "note": "[nonanoic acid]", "values": [{"measurement": "EC50", "setting": "[3]", "result": 35, "unit": "µM"}]}, {"smiles": "CCCCCCCC(=O)O", "note": "[octanoic acid]", "values": [{"measurement": "two-electrode voltage clamp, Xenopus oocytes, 10^-4 M single concentration", "setting": "[4]", "result": "octanoic and nonanoic acids elicited the greatest inward currents"}]}]}
